Experimental data: paper PMC11509018, “Evaluation of the Role of Tanshinone I in an In Vitro System of Charcot-Marie-Tooth Disease Type 2N” (International Journal of Molecular Sciences, 2024)
“Also recorded” adds a separate entry of the source.

What was measured:
AlaRS^R329H [1] = biological target: T1, AlaRS^R329H (Homo sapiens, UniProt P49588, R329H); test: Proteolytic digestion assay (trypsin, SDS-PAGE); settings: 3 h
T1 construct: made in house; host or cells: E. coli BL21 (DE3), pET-21a
T1 sequence (P49588 1-968 R329H): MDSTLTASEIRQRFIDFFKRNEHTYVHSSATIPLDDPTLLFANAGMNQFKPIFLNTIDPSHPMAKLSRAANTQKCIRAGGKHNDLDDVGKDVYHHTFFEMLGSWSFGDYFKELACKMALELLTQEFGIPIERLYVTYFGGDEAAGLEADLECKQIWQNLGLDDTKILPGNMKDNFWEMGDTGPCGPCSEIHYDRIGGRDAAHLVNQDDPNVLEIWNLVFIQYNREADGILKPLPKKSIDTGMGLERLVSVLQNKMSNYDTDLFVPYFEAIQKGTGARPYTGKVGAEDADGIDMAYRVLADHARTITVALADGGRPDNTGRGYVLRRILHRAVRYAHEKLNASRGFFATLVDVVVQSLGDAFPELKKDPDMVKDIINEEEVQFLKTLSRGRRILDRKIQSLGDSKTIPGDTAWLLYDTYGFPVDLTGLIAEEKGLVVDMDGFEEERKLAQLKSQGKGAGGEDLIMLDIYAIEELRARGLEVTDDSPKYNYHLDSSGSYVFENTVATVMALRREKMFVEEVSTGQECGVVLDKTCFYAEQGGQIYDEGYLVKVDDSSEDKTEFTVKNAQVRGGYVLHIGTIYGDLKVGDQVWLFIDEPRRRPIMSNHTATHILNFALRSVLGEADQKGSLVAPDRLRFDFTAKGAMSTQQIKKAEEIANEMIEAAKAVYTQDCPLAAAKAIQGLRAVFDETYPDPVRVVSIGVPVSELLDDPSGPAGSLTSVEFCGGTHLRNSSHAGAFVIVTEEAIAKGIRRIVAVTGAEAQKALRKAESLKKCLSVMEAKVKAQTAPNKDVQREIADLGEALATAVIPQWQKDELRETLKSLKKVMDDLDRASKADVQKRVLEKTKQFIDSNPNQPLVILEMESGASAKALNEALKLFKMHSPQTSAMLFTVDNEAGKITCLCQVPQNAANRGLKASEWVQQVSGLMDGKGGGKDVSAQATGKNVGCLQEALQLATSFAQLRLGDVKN
Method: To delve deeper into the impact of selected small molecules on the structural conformation of AlaRS^R329H proteins, a series of proteolysis experiments were conducted. The small molecules were incubated with AlaRS^R329H proteins at room temperature for three hours, followed by SDS-PAGE analysis to evaluate their effects on the distribution of the digestion fragments. […] The AlaRS^R329H proteins (in the presence and absence of Atazanavir sulfate, Tanshinone I, Hederacolchiside A1, and Hexylresorcinol) were incubated with trypsin at different concentrations for 3 h before the reactions were quenched, and the products were separated by SDS-PAGE.

AlaRS^R329H [2] = biological target: T1, AlaRS^R329H; test: Biolayer interferometry (BLI); format: binding; settings: immobilized AlaRS^R329H, 40, 20, 10, 5, 2.5 μM, mean ± SD, triplicate
Excerpt: To quantitatively analyze the binding affinity between the small molecules and the CMT mutant proteins, we performed BLI analysis on the selected candidates. BLI offers direct measurements of drug–protein binding kinetics, including key parameters such as the equilibrium dissociation constant (KD), association rate (Kon), and dissociation rate (Koff). This analysis provided key insights into the binding affinities of the four small molecules with the mutant protein AlaRS^R329H. […] To further quantify the binding of small molecules to mutant proteins, binding experiments with AlaRS^R329H proteins and small molecules were conducted using an Octet R8 system (ForteBio, Fremont, CA, USA). Purified His-tagged AlaRS^R329H proteins (500 μg/mL) were captured on Ni-NTA biosensors (ForteBio, Fremont, CA, USA), achieving a saturation response of 4–5 nm after 300 s. The biosensors were then transferred to Octet buffer (PBS with 0.01% Tween 20) for 180 s to remove loosely bound, nonspecific proteins and to establish a stable baseline. Following this, the sensors were immersed in diluted Tanshinone I (2.5–100 μM in assay buffer) for 120 s to record the association signal, and then transferred back into Octet buffer to monitor the dissociation signal for 120 s. Reference wells containing buffer instead of Tanshinone I were included to correct for baseline shifts. Additionally, a parallel set of Ni-NTA sensors in buffer served as negative reference controls to account for nonspecific binding of the compounds to the biosensor surface. The data were processed using a double reference subtraction protocol to eliminate nonspecific signals, background noise, and signal drifts caused by biosensor variability. All assays were performed in 96-well black plates with a total volume of 200 μL per well at 30 °C. Data analysis, including correction and curve fitting, was carried out using Octet® Analysis Studio 12.2.2.26. The experiment was repeated three times.

Kd (AlaRS^R329H [2]): 5.1 ± 1.9 µM
Compound: Cc1coc2c1C(=O)C(=O)c1c-2ccc2c(C)cccc12 [Tanshinone I]
Effect on distribution of digestion fragments / conformation (AlaRS^R329H [1]): markedly altered the digestion fragment pattern; also recorded: significant change in the distribution of the bands
